Measurements published in paper PMC4369398 (Journal of colloid and interface science, 2014).

How the values were obtained:
[1] = Self-assembly in water; format: physicochemical; settings: for diameter (width) of self-assembled nanofibers: TEM, pH 7.0, 2.0 wt %, direct self-assembly without enzyme; for appearance / state in water: pH 7.0, 2.0 wt % concentration, optical image, for 2 via pH adjustment
[2] = molecular target: T1, CD73 (Homo sapiens, UniProt P21589)
T1 sequence (P21589 27-574): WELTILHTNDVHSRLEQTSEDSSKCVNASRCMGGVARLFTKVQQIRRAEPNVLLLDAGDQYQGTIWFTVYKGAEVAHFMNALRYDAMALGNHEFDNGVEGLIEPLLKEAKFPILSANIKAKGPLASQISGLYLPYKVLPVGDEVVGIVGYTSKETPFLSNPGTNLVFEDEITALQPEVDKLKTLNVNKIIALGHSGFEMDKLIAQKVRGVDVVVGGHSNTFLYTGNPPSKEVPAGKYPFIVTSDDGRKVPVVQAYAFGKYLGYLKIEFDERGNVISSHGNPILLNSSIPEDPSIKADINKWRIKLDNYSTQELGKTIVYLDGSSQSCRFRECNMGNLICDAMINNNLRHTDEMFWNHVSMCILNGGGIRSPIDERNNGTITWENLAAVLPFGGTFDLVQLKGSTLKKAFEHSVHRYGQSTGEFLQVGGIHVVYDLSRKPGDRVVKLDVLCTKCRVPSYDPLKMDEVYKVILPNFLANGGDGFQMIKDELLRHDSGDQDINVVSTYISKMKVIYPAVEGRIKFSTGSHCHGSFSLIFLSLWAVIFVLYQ

Q: For O=C(Cc1ccc2ccccc2c1)N[C@H](Cc1ccccc1)C(=O)N[C@H](Cc1ccccc1)C(=O)N[C@H](CCCCNc1ncnc2c1ncn2[C@@H]1O[C@H](CO)[C@@H](O)[C@H]1O)C(=O)O [compound 2, naphthalene-D-Phe-D-Phe-D-Lys(adenosine)], which “diameter (width) of self-assembled nanofibers” value [1] is on record?
A: Its value is 5 ± 1 nm.

Q: What about the “appearance / state in water” value [1] of the same compound?
A: Its value is “transparent hydrogel”.

Q: With O=C(Cc1ccc2ccccc2c1)N[C@H](Cc1ccccc1)C(=O)N[C@H](Cc1ccccc1)C(=O)N[C@H](CCCCNc1ncnc2c1ncn2[C@@H]1O[C@H](COP(=O)(O)O)[C@@H](O)[C@H]1O)C(=O)O [compound 1, naphthalene-D-Phe-D-Phe-D-Lys(AMP)] as the compound, how does the “diameter (width) of self-assembled nanofibers” value [1] read?
A: The value was 8 ± 1 nm.

Q: What about the “appearance / state in water” value [1] of the same compound?
A: The value was “transparent solution”.

Q: What about the “hydrogel formation on adding CD73” value ([2]; 1 μg of CD73 added to 0.5 mL of 2 wt % solution, 37 °C, pH 7.0) of the same compound?
A: The value was “hydrogel formation after three days”.

Q: What about the “diameter of nanofibers of the CD73-formed hydrogel” value ([2]; TEM, after CD73 treatment, pH 7.0, 2.0 wt %) of the same compound?
A: The value was 8 ± 1 nm.
